Data taken from US9663494B2, “Inhibitors of bruton's tyrosine kinase” (Hoffmann-La Roche Inc., priority 2013, dated 2017).

Biological target: Bruton's Tyrosine Kinase (BTK), inactivated state (Homo sapiens (Human), UniProt Q06187)
Assay: Bruton's Tyrosine Kinase (BTK) Inhibition TR-FRET (Time Resolved FRET) competition assay
Type: binding
Conditions: BTK-Eu / Kinase Tracer 178 competition, incubated 18-24 h at 14° C.
Description: 10) Add 50 μL microscint-20 and count ^33P cpm on scintillation counter. • Calculate percent activity from raw data in cpm percent activity=(sample−bkg)/(total activity−bkg)×100 • Calculate IC50 from percent activity, using one-site dose response sigmoidal model y=A+((B−A)/(1+((x/C)^D)))) • x=cmpd conc, y=% activity, A=min, B=max, C=IC50, D=1 (hill slope) Bruton's Tyrosine Kinase (BTK) Inhibition TR-FRET (Time Resolved FRET) Assay
This BTK competition assay measures compound potency (IC50) for the inactivated state of Bruton's Tyrosine Kinase using FRET (Förster/Flouresence Resonance Energy Transfer) technology. The BTK-Eu complex was incubated on ice one hour prior to use at a starting concentration of 50 nM BTK-Bioease™: 10 nM Eu-streptavidin (Perkin-Elmer Catalog# AD0062). The assay buffer consisted of 20 mM HEPES (pH 7.15), 0.1 mM DTT, 10 mM MgCl2, 0.5 mg/ml BSA with 3% Kinase Stabilizer (Fremont Biosolutions, Catalog # STB-K02). After 1 h, the reaction mixture from above was diluted 10 fold in assay buffer to make 5 nM BTK: 1 nM Eu-Streptavidin complex (donor fluorophore). 18 μl of a mixture of 0.11 nM BTK-Eu and 0.11 nM Kinase Tracer 178 (Invitrogen, Catalog # PV5593) with BTK-Eu alone as no negative control, was then dispensed into 384-well flat bottom plates (Greiner, 784076). Compounds to be tested in assay were prepared as 10× concentrations and serial dilution in half-log increments was performed in DMSO so as to generate 10 point curves. To initiate the FRET reaction, compounds prepared as 10× stock in DMSO was added to the plates and the plates were incubated 18-24 h at 14° C.

Chain of Bruton's Tyrosine Kinase (BTK), inactivated state (Q06187 whole entry): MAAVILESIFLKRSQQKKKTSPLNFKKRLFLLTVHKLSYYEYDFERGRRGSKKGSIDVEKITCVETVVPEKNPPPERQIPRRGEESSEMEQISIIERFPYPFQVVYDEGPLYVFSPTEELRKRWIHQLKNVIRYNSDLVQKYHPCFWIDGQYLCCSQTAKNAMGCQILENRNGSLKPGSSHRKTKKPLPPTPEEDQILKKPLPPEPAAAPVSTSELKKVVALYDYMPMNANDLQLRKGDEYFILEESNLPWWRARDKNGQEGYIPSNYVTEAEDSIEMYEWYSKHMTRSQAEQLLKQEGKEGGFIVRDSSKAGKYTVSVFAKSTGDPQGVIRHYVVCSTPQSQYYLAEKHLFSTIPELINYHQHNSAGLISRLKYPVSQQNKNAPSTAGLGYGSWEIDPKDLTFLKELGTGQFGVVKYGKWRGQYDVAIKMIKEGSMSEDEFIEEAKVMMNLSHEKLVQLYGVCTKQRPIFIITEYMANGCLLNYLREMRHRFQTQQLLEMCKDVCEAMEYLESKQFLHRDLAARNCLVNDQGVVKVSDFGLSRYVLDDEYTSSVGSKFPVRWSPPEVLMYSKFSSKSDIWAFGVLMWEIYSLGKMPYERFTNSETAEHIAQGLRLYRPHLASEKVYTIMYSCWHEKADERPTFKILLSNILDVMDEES

Row | SMILES | IC50
1 | Cn1nc(-c2cccc(N3CCc4cc(C(C)(C)C)ncc4C3=O)c2CO)cc(Nc2ccc(C(=O)N3CCOCC3)cn2)c1=O [Compound 6, 6-tert-butyl-2-[2-(hydroxymethyl)-3-[1-methyl-5-[[5-(morpholine-4-carbonyl)pyridin-2-yl]amino]-6-oxopyridazin-3-yl]phenyl]-3,4-dihydro-2,7-naphthyridin-1-one] | 0.0146 µM
2 | Cc1c(-c2cc(Nc3ccc(C(=O)N4CCOCC4)cn3)c(=O)n(C)n2)cccc1-n1ncc2cc(C(C)(C)C)cc(F)c2c1=O [Compound 7, 6-tert-butyl-8-fluoro-2-[2-methyl-3-[1-methyl-5-[[5-(morpholine-4-carbonyl)pyridin-2-yl]amino]-6-oxopyridazin-3-yl]phenyl]phthalazin-1-one] | 0.0065 µM
3 | Cn1nc(-c2cccc(N3CCOc4cc(C(C)(C)C)ccc4C3=O)c2CO)cc(Nc2ccc(S(C)(=O)=O)cn2)c1=O [Compound 9, 8-tert-butyl-4-[2-(hydroxymethyl)-3-[1-methyl-5-[(5-methylsulfonylpyridin-2-yl)amino]-6-oxopyridazin-3-yl]phenyl]-2,3-dihydro-1,4-benzoxazepin-5-one] | 0.00424 µM
4 | Cn1nc(-c2cccc(N3CCOc4cc(C(C)(C)CO)ccc4C3=O)c2CO)cc(Nc2ccc(S(C)(=O)=O)cn2)c1=O [Compound 3, 4-[2-(hydroxymethyl)-3-[1-methyl-5-[(5-methylsulfonylpyridin-2-yl)amino]-6-oxopyridazin-3-yl]phenyl]-8-(1-hydroxy-2-methylpropan-2-yl)-2,3-dihydro-1,4-benzoxazepin-5-one] | 0.0526 µM
5 | Cn1cc(-c2cccc(N3CCc4cc(C(C)(C)C)ncc4C3=O)c2CO)cc(Nc2ccc(C(=O)N3CCOCC3)cn2)c1=O [Compound 5, 6-tert-butyl-2-[2-(hydroxymethyl)-3-[1-methyl-5-[[5-(morpholine-4-carbonyl)pyridin-2-yl]amino]-6-oxopyridin-3-yl]phenyl]-3,4-dihydro-2,7-naphthyridin-1-one] | 0.0137 µM
6 | Cn1nc(-c2cccc(N3CCOc4cc(C(C)(C)C)ccc4C3=O)c2CO)cc(Nc2ccc(C(=O)N3CCOCC3)cn2)c1=O [Compound 8, 8-tert-butyl-4-[2-(hydroxymethyl)-3-[1-methyl-5-[[5-(morpholine-4-carbonyl)pyridin-2-yl]amino]-6-oxopyridazin-3-yl]phenyl]-2,3-dihydro-1,4-benzoxazepin-5-one] | 0.00177 µM
7 | Cn1cc(-c2cccc(NC(=O)N3Cc4ccc(Cl)cc4C3)c2CO)cc(Nc2ccc(C(=O)N3CCOCC3)cn2)c1=O [Compound 4, 5-chloro-N-[2-(hydroxymethyl)-3-[1-methyl-5-[[5-(morpholine-4-carbonyl)pyridin-2-yl]amino]-6-oxopyridin-3-yl]phenyl]-1,3-dihydroisoindole-2-carboxamide] | 0.0319 µM
8 | Cn1nc(-c2cccc(-n3ccc4cc(C(C)(C)C#N)cc(F)c4c3=O)c2CO)cc(Nc2ccc(OC(C)(C)CO)cn2)c1=O [Compound 2, 2-[8-fluoro-2-[2-(hydroxymethyl)-3-[5-[[5-(1-hydroxy-2-methylpropan-2-yl)oxypyridin-2-yl]amino]-1-methyl-6-oxopyridazin-3-yl]phenyl]-1-oxoisoquinolin-6-yl]-2-methylpropanenitrile] | 0.00112 µM
9 | Cn1nc(-c2cccc(N3CCc4cc(C(C)(C)C#N)ccc4C3=O)c2CO)cc(Nc2ccc(C(=O)N3CCOCC3)cn2)c1=O [Compound 1, 2-[2-[2-(hydroxymethyl)-3-[1-methyl-5-[[5-(morpholine-4-carbonyl)pyridin-2-yl]amino]-6-oxopyridazin-3-yl]phenyl]-1-oxo-3,4-dihydroisoquinolin-6-yl]-2-methylpropanenitrile] | 0.0112 µM
